Experimental findings from patent publication US20130060013A1, “Compounds useful for treating neurodegenerative disorders” (SATORI PHARMACEUTICALS, INC., priority 2011, published 2013) are described below.

Usually IC50 stands for the concentration that inhibits the measured activity by half.

The test system of experiment [1] is Aβ-38. Briefly: Aβ-38 level in conditioned media of 2B7 cells (MSD 3-PLEX ELISA). It is filed as cell-based. As to conditions: Homo sapiens, compound 5 hours at 37° C., 1% DMSO, percent vehicle fit to 4 parameter curve. Here is the method:
(§1) Assays were conducted to determine the ability of a Compound of Formula I to modulate […], and Aβ-38.
(§2) Plates with capture antibodies were blocked for 1-2 hours at room temperature with 150 μL of the manufactures blocking reagent.
(§3) Cultured 2B7 cells in 96 well plate with 250 uL of media per well until confluent;
(§4) Prepared serial dilutions of compounds in DMSO at 100× the final desired concentration;
(§5) Washed wells with 2B7 cells 1× with 250 uL of media;
(§6) Diluted DMSO stocks 1:100 into media:
(§7) Added 250 μL of media containing compounds (1% DMSO) to wells with 2B7 cells for 5 hours at 37° C.
(§8) Diluted conditioned media: 1 part media with 1% DMSO and 1 part blocking buffer;
(§9) 150 μL of the 250 μL of conditioned media were used.
(§10) Standard Curve Sample Prep:
(§11) Prepared per manufacturer's protocol (see above)
(§12) Seven point standard curve samples were prepared that contained Aβ-42, Aβ-40, and Aβ-38. The highest concentration of Aβ-42 and Aβ-38 was 3,000 pg/mL and the highest concentration of Aβ-40 was 10,000 pg/mL. Subsequent serial dilutions were 1:3 and the final composition of each sample was 1 part blocking buffer and 1 part cell medium containing 1% DMSO.
(§13) Overnight Sample Incubation:
(§14) Blocked plates are washed 5× with MSD wash buffer with a plate washer
(§15) 25 uL of detection antibody and blocker G reagent in MSD blocking solution is added
(§16) 25 uL of samples (1 part conditioned media containing 1% DMSO and 1 part MSD blocking buffer) are then added.
(§17) plates are incubated overnight at 4 degrees C. or 2 hours at room temp
(§18) Wash wells 5× with MSD wash buffer
(§19) Added 150 μL 2×MSD read buffer
(§20) A-Beta peptide levels for each peptide are calculated from the standard curve using the MSD software provided with the MSD 2400 Imager. Percent vehicle values for each compound dosage were then calculated and fit to a 4 parameter curve generating IC50 values.
(ELISA stands for enzyme-linked immunosorbent assay.)

The test system of experiment [2] is Aβ-42. Kind of experiment: Aβ-42 level in conditioned media of 2B7 cells (MSD 3-PLEX ELISA). To be noted: Homo sapiens, compound 5 hours at 37° C., 1% DMSO, percent vehicle fit to 4 parameter curve. It is filed as cell-based. Here is the method:
as §1, §2, §3, §4, §5, §6, §7, §8, §9, §10, §11, §12, §13, §14, §15, §16, §17, §18, §19, §20

Turning to `CCO[C@@H]([C@H]1C[C@@H](C)[C@H]2[C@H](O1)[C@H](O)[C@@]1(C)[C@@H]3CC[C@H]4C(C)(C)[C@@H](OC(=O)[C@@H]5COCCN5C(=O)OC(C)(C)C)CCC45C[C@@]35CC[C@]21C)C(C)(C)O` (some centres unmarked), the IC50 in experiment [1] and in experiment [2] was 1000 to 10000 nM in each case.

As for `CCO[C@@H]([C@H]1C[C@@H](C)[C@H]2[C@H](O1)[C@H](O)[C@@]1(C)[C@@H]3CC[C@H]4C(C)(C)[C@@H](OC(=O)[C@@H]5CNCCO5)CCC45C[C@@]35CC[C@]21C)C(C)(C)O` (some centres unmarked), the IC50 in experiment [1] and in experiment [2] was below 1000 nM each time.

With `CCO[C@@H]([C@H]1C[C@@H](C)[C@H]2[C@H](O1)[C@H](O)[C@@]1(C)[C@@H]3CC[C@H]4C(C)(C)[C@@H](O[C@H]5CN(CC(F)F)CCO5)CCC45C[C@@]35CC[C@]21C)C(C)(C)O` (some centres unmarked), the IC50 in experiment [1] is 1000 to 10000 nM; in experiment [2] it was below 1000 nM.

Turning to `CCO[C@@H]([C@H]1C[C@@H](C)[C@H]2[C@H](O1)[C@H](O)[C@@]1(C)[C@@H]3CC[C@H]4C(C)(C)[C@@H](OC(=O)[C@H]5CN(C)CCO5)CCC45C[C@@]35CC[C@]21C)C(C)(C)O` (some centres unmarked), the IC50 in experiment [1] was 1000 to 10000 nM; in experiment [2] it was below 1000 nM.

Turning to `CCO[C@@H]([C@H]1C[C@@H](C)[C@H]2[C@H](O1)[C@H](O)[C@]1(C)[C@@H]3CC[C@H]4C(C)(C)[C@@H](O[C@H]5CN([C@H](C)CN6CCC6)CCO5)CC[C@@]45C[C@@]35CC[C@@]21C)C(C)(C)O`, the IC50 in experiment [1] and in experiment [2] was below 1000 nM each time.

Take `CCO[C@@H]([C@H]1C[C@@H](C)[C@H]2[C@H](O1)[C@H](O)[C@@]1(C)[C@@H]3CC[C@H]4C(C)(C)[C@@H](O[C@H]5CN([C@H](C)C(=O)N(C)C)CCO5)CCC45C[C@@]35CC[C@]21C)C(C)(C)O` (some centres unmarked): the IC50 in experiment [1] and in experiment [2] was below 1000 nM each time.

With `C[C@@H]1C[C@H]([C@H](OCCO)C(C)(C)O)O[C@H]2[C@H]1[C@@]1(C)CC[C@@]34CC35CC[C@H](O[C@H]3CN(C6CN(C7COC7)C6)CCO3)C(C)(C)[C@@H]5CC[C@H]4[C@]1(C)[C@H]2O` (some centres unmarked), the IC50 in experiment [1] and in experiment [2] was 1000 to 10000 nM each time.

Take `CCO[C@@H]([C@H]1C[C@@H](C)[C@H]2[C@H](O1)[C@H](O)[C@@]1(C)[C@@H]3CC[C@H]4C(C)(C)[C@@H](O[C@H]5CNCCO5)CCC45C[C@@]35CC[C@]21C)C(C)(C)OCC` (some centres unmarked): the IC50 in experiment [1] and in experiment [2] was 1000 to 10000 nM each time.

For `CCO[C@@H]([C@H]1C[C@@H](C)[C@H]2[C@H](O1)[C@H](O)[C@@]1(C)[C@@H]3CC[C@H]4C(C)(C)[C@@H](OC(=O)[C@H]5COCCN5C(C)C)CCC45C[C@@]35CC[C@]21C)C(C)(C)O` (some centres unmarked), the IC50 in experiment [1] is 1000 to 10000 nM; in experiment [2] it was below 1000 nM.

For `CCO[C@@H]([C@H]1C[C@@H](C)[C@H]2[C@H](O1)[C@H](O)[C@@]1(C)[C@@H]3CC[C@H]4C(C)(C)[C@@H](O[C@H]5CN(C(CO)CO)CCO5)CCC45C[C@@]35CC[C@]21C)C(C)(C)O` (some centres unmarked), the IC50 in experiment [1] and in experiment [2] was below 1000 nM throughout.

As for `CCO[C@@H]([C@H]1C[C@@H](C)[C@H]2[C@H](O1)[C@H](O)[C@@]1(C)[C@@H]3CC[C@H]4C(C)(C)[C@@H](OC(=O)[C@@H]5CCCN5C(=O)OC(C)(C)C)CCC45C[C@@]35CC[C@]21C)C(C)(C)O` (some centres unmarked), the IC50 in experiment [1] and in experiment [2] was 1000 to 10000 nM each time.

For the compound `CCO[C@@H]([C@H]1C[C@@H](C)[C@H]2[C@H](O1)[C@H](O)[C@@]1(C)[C@@H]3CC[C@H]4C(C)(C)[C@@H](OC(=O)[C@H]5COCCN5C(=O)OC(C)(C)C)CCC45C[C@@]35CC[C@]21C)C(C)(C)O` (some centres unmarked), the IC50 in experiment [1] and in experiment [2] was 1000 to 10000 nM throughout.

Compound `CO[C@@H](C1C[C@@H](C)[C@H]2C(O1)[C@H](O)[C@@]1(C)C3CC[C@H]4C(C)(C)[C@@H](O[C@H]5CN(CCN6CCC6)CCO5)CCC45C[C@@]35CC[C@]21C)C(C)(C)O` (some centres unmarked) gave an IC50 in experiment [2] below 1000 nM.

Turning to `CO[C@@H]([C@H]1C[C@@H](C)[C@H]2[C@H](O1)[C@H](O)[C@@]1(C)[C@@H]3CC[C@H]4C(C)(C)[C@@H](O[C@H]5CNCCO5)CCC45C[C@@]35CC[C@]21C)C(C)(C)OC` (some centres unmarked), the IC50 in experiment [1] and in experiment [2] was below 1000 nM in each case.

For `CCO[C@@H]([C@H]1C[C@@H](C)[C@H]2[C@H](O1)[C@H](O)[C@@]1(C)[C@@H]3CC[C@H]4C(C)(C)[C@@H](OC(=O)C5CN(C6COC6)C5)CCC45C[C@@]35CC[C@]21C)C(C)(C)O` (some centres unmarked), the IC50 was 1000 to 10000 nM in experiment [1] and below 1000 nM in experiment [2].

Regarding `CCO[C@@H]([C@H]1C[C@@H](C)[C@H]2[C@H](O1)[C@H](O)[C@@]1(C)[C@@H]3CC[C@H]4C(C)(C)[C@@H](OC(=O)[C@@H]5COCCN5CCOC)CCC45C[C@@]35CC[C@]21C)C(C)(C)O` (some centres unmarked), the IC50 in experiment [1] is 1000 to 10000 nM; in experiment [2] it was below 1000 nM.

As for `CO[C@@H]([C@H]1C[C@@H](C)[C@H]2[C@H](O1)[C@H](O)[C@@]1(C)[C@@H]3CC[C@H]4C(C)(C)[C@@H](O[C@H]5CN(C6(C)COC6)CCO5)CCC45C[C@@]35CC[C@]21C)C(C)(C)O` (some centres unmarked), the IC50 in experiment [1] and in experiment [2] was 1000 to 10000 nM in each case.

With `CCO[C@@H]([C@H]1C[C@@H](C)[C@H]2[C@H](O1)[C@H](O)[C@@]1(C)[C@@H]3CC[C@H]4C(C)(C)C(O[C@H]5CN(CCNCCNC(=O)CCC6(C)N=N6)CCO5)CC[C@@]45CC35CC[C@]21C)C(C)(C)O` (some centres unmarked), the IC50 in experiment [1] was 1000 to 10000 nM; in experiment [2], below 1000 nM.

Take `CCO[C@@H]([C@H]1C[C@@H](C)[C@H]2[C@H](O1)[C@H](O)[C@@]1(C)[C@@H]3CC[C@H]4C(C)(C)[C@@H](O[C@H]5CN(Cc6cnn(C)c6)CCO5)CCC45C[C@@]35CC[C@]21C)C(C)(C)O` (some centres unmarked): the IC50 in experiment [1] is 1000 to 10000 nM; in experiment [2], below 1000 nM.

With `CCO[C@@H]([C@H]1C[C@@H](C)[C@H]2[C@H](O1)[C@H](O)[C@@]1(C)[C@@H]3CC[C@H]4C(C)(C)[C@@H](O[C@H]5CN(Cc6nccn6C)CCO5)CCC45C[C@@]35CC[C@]21C)C(C)(C)O` (some centres unmarked), the IC50 in experiment [1] is 1000 to 10000 nM; in experiment [2] it was below 1000 nM.

Consider `CCO[C@@H](C1C[C@@H](C)[C@H]2C(O1)[C@H](O)[C@@]1(C)C3CC[C@H]4C(C)(C)[C@@H](O[C@H]5CN(Cc6ncco6)CCO5)CCC45C[C@@]35CC[C@]21C)C(C)(C)O` (some centres unmarked), for which the IC50 in experiment [1] is 1000 to 10000 nM; in experiment [2] it was below 1000 nM.

With `CCO[C@@H]([C@H]1C[C@@H](C)[C@H]2[C@H](O1)[C@H](O)[C@@]1(C)[C@@H]3CC[C@H]4C(C)(C)[C@@H](O[C@H]5CN(c6ncccn6)CCO5)CCC45C[C@@]35CC[C@]21C)C(C)(C)O` (some centres unmarked), the 50% inhibitory concentration (IC50) in experiment [1] and in experiment [2] was 1000 to 10000 nM in each case.

Consider `CCO[C@@H]([C@@H]1C[C@H]2[C@H]([C@H](C)C1)[C@@]1(C)CCC34C[C@@]35CC[C@H](O[C@H]3CN([C@@H](C)C(=O)N(C)C)CCO3)C(C)(C)[C@@H]5CC[C@H]4[C@]1(C)[C@H]2O)C(C)(C)O` (some centres unmarked), for which the IC50 in experiment [2] was below 1000 nM.
